Five compounds from patent US8071587B2, “(Dihydro)imidazoiso[5,1-A]quinolines” (N. V. Organon, priority 2009, dated 2011) can be followed below.

As usually defined, the EC50 is the concentration at which the effect is half-maximal. Lower therefore signals a more potent agent. In general, melting point refers to the temperature of the solid-liquid transition.

SMILES strings stand for the structures.

The target in one series is T1, human FSH receptor (Homo sapiens, UniProt P23945).
T1 construct: expressed in transfected cells; host or cells: Chinese Hamster Ovary (CHO) cells, stably transfected, cotransfected with a CRE/promoter-firefly luciferase reporter
T1 sequence (P23945 18-695): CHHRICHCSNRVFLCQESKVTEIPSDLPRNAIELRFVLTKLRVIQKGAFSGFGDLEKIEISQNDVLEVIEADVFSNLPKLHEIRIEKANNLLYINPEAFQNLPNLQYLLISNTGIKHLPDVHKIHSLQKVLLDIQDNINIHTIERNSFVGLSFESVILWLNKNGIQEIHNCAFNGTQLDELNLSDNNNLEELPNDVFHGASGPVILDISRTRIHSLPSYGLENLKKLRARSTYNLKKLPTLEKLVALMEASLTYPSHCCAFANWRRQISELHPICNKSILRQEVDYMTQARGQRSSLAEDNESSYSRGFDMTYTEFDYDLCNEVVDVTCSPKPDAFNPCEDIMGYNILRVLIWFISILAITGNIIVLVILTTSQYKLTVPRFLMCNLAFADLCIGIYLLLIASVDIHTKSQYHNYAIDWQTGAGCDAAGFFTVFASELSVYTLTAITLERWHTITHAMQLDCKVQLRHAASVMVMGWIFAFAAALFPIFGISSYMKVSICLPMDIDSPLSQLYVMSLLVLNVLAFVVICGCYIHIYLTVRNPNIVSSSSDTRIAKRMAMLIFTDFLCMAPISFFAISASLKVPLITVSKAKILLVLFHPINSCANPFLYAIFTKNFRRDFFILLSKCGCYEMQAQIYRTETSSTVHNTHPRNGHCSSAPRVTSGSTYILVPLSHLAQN
Kind of series: Agonistic activity at the human FSH receptor expressed in CHO cells, CRE-luciferase reporter (hFSHRago CHO luc). The following applies: CHO cells stably transfected with human FSH receptor and CRE/luciferase reporter; 4 hours of incubation. It counts as cell-based. The text has this:
The term EC50 means the concentration of the test compound that elicits half-maximal (50%) stimulation compared to the compound's maximally attainable effect. The values can be determined e.g. in a cell line transfected with a FSH receptor gene and cotransfected with a cAMP responsive element/promoter directing the expression of a reporter gene. Values can be determined using a software program such as MathIQ (version 2.0, ID Business Solutions Limited). Agonistic Activity of Compounds at the Human FSH Receptor Expressed in CHO Cells Agonistic activity of the compounds at the human FSH receptor was determined in Chinese Hamster Ovary (CHO) cells stably transfected with the human FSH receptor and cotransfected with a cAMP responsive element (CRE)/promotor directing the expression of a firefly luciferase reporter gene. Binding of the compounds to the Gs protein-coupled FSH receptor will result in an increase of cAMP, which in turn will induce an increased transactivation of the luciferase reporter. Cells (7,500 cells/well of a 384 well plate) were incubated in Dulbecco' minimal essential F12 modified medium (Invitrogen), supplemented with 1 μg/ml bovine insulin, 5 μg/ml human apo-transferrin, 80 U/ml penicillin G and 80 μg/ml streptomycin with the test compounds (concentration between 0.0316 nM and 10.0 μM) in duplicate in a humidified atmosphere (95%) at 5-7% CO2 and 37° C. The final concentration of DMSO was 1%. After 4 hours of incubation, plates were allowed to adjust to room temperature for 1 hour. Then, Luclite (PerkinElmer) solution was added to the wells and cells were allowed to lyse for at least 1 hour at room temperature. Subsequently, luciferase activity was measured in a luminescence counter. The signal is expressed as counts per second (cps). The EC50 (concentration of the test compound that elicits half-maximal (50%) luciferase stimulation compared to the compound's maximally attainable effect) and efficacy values (maximal effect of the test compound as percentage of the maximal effect of recombinant human FSH) of the compounds were determined using the software program MathIQ (version 2.0, ID Business Solutions Limited). EC50 data are indicated at the synthesis examples.
For orientation: A reporter such as luciferase makes a cellular process visible.

The compound `COC1=CC2CCn3c(C(=O)N(C)C(C)(C)C)nc(-c4cccs4)c3C2C=C1c1cccnc1` (stereo not drawn) [Example 2a, 8-Methoxy-9-pyridin-3-yl-1-thiophen-2-yl-5,6,6a,10a-tetrahydro-imidazo[5,1-a]isoquinoline-3-carboxylic acid tert-butyl-methyl-amide] came in with an EC50 at human FSH receptor of 1 nM.

`COc1cc2ccn3c(C(=O)N(C)C(C)(C)C)nc(-c4cccs4)c3c2cc1OC(C)C` [Example 15j, 9-Isopropoxy-8-methoxy-1-thiophen-2-yl-imidazo[5,1-a]isoquinoline-3-carboxylic acid tert-butyl-methyl-amide] had a melting point of 163 to 164 °C. On human FSH receptor, it took 6.5 nM to reach a half-maximal effect (EC50).

As to `CCCCN1CCN(C(=O)c2nc(-c3cccs3)c3n2CCc2cc(OC)c(OC(C)C)cc2-3)CCC1=O` [Example 27b, 4-Butyl-1-(9-isopropoxy-8-methoxy-1-thiophen-2-yl-5,6-dihydro-imidazo[5,1-a]isoquinoline-3-carbonyl)-[1,4]diazepan-5-one], the midpoint of the response at human FSH receptor, the EC50, lay at 0.6 nM. The compound `C=CCN1CCN(C(=O)c2nc(-c3cccs3)c3n2CCc2cc(OC)c(OC(C)C)cc2-3)CCC1=O` [Example 28, 4-Allyl-1-(9-isopropoxy-8-methoxy-1-thiophen-2-yl-5,6-dihydro-imidazo[5,1-a]isoquinoline-3-carbonyl)-[1,4]diazepan-5-one] showed an EC50 at human FSH receptor of 3 nM. As to `CCn1nnc(-c2cc3c(cc2OC)CCn2c(C(=O)N(C)C(C)(C)C)nc(-c4cccs4)c2-3)n1` [Example 51c, 9-(2-Ethyltetrazol-5-yl-)-8-methoxy-1-thiophen-2-yl-5,6-dihydro-imidazo[5,1-a]isoquinoline-3-carboxylic acid tert-butyl-methyl-amide], the EC50 on human FSH receptor turned out to be 5 nM.
